This note sets out measurements from patent US20210300936A1, “PYRAZOLOTRIAZOLOPYRIMIDINE DERIVATIVES AS A2A RECEPTOR ANTAGONIST” (BEIGENE, LTD., priority 2018, published 2021).

The target in the assay is human A2A receptor (A2AR) (Homo sapiens, UniProt P29274). Briefly: Luciferase reporter assay (HEK293-A2AR-luc2p/CRE/Hygro cells, 3 nM CGS21680). In kind it is cell-based. To be noted: 3 nM CGS21680, 5 h incubation. As for the experimental part: HEK293 cells were maintained in Dulbecco's modified Eagle's medium (DMEM, Gibco) supplemented with 10% fetal bovine serum (FBS, Thermo Scientific), 100 units/mL penicillin (Gibco), and 0.1 mg/mL streptomycin (Gibco) in a humidified 37° C. environment with 5% C02. Plasmid encoding wild-type human A2A receptor (A2AR) (in pcDNA3.1) was synthesized by Genscript (Nanjing, China). Transfection of the plasmids was performed in 6-well plates with 4×10^5 cells using Lipofectamin 2000 (ThermoFisher Scientific) according to the instruction of the manufacturer. Cell clones that stably express A2AR were established and maintained in the same complete medium as the HEK293 cells in addition of G-418 (Gibico). Expression level of A2AR in each single cell clone was determined using immunoblotting and FACS method. HEK293-A2AR stable cells were then transfected with pGL4.29[luc2P/CRE/Hygro] (Promega) luciferase reporter plasmid for establishing the HEK293-A2AR-luc2p/CRE/Hygro stable cell line.
HEK293-A2AR-luc2p/CRE/Hygro cells were seeded at a density of 5,000 cells/well in DMEM with 1% FBS and 1 U/mL adenosine deaminase (ADA) (Sigma). After 18 h, the cells were treated with 3 nM CGS21680 plus a series dilution of A2AR antagonist, the compounds disclosed herein at the concentration of 0.1˜10000 nM, prepared in DMEM with 1% FBS. After 5 h incubation, the luciferase activity in cells were measured using the Bright-Glo Luciferase Assay System (Promega) according to manufacturer's instructions. The luminescence signal was measured using a PHERAstar FS plate reader (BMG Labtech). […] Maximal luminescence intensity was determined in the presence of 3 nM CGS21680 and was set as 100%. The IC50 value was calculated from a dose dependent inhibition curve across the range of compound concentrations.

human A2A receptor (A2AR), sequence (P29274 whole entry): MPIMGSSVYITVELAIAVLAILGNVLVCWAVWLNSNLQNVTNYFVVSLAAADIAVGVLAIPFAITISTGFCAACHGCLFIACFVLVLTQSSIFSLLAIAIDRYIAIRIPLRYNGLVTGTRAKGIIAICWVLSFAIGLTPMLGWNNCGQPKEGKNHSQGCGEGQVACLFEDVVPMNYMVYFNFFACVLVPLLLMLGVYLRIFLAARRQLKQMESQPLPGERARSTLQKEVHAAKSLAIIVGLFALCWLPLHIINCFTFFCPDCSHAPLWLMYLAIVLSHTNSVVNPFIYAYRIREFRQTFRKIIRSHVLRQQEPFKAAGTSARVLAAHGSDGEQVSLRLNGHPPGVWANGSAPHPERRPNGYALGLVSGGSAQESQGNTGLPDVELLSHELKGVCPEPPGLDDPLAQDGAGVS

Take `Nc1nc2c(cnn2C(C(=O)N2CCCCC2)c2ccccc2)c2nc(-c3ccco3)nn12` (stereo not shown) [Compound B2, 2-(5-amino-2-(furan-2-yl)-7H-pyrazolo[4,3-e][1,2,4]triazolo[1,5-c]pyrimidin-7-yl)-2-phenyl-1-(piperidin-1-yl)ethan-1-one]: the half-inhibitory concentration (IC50) was determined as 2.9 nM.
Consider `COCCOc1ccc(N2CCN(C(=O)C(CC(C)C)n3cc4c(nc(N)n5nc(-c6ccco6)nc45)n3)CC2)cc1` (stereo not shown) [Compound C17, 2-(5-amino-2-(furan-2-yl)-8H-pyrazolo[4,3-e][1,2,4]triazolo[1,5-c]pyrimidin-8-yl)-1-(4-(4-(2-methoxyethoxy)phenyl)piperazin-1-yl)-4-methylpentan-1-one], for which the half-inhibitory concentration (IC50) was found to be 88.4 nM.
For `CCCCC(C(=O)N1CCN(c2ccc(OCCOCCOC)cc2)CC1)n1ncc2c1nc(N)n1nc(-c3ccco3)nc21` (single isomer, unassigned) [Compound A11b] the value was 121 nM.
To `COCCOc1ccc(N2CCN(C(=O)C(C)(c3ccccc3)n3cc4c(nc(N)n5nc(-c6ccco6)nc45)n3)CC2)cc1` (single isomer, unassigned) [Compound C25b] belongs 21.2 nM; to `CC(C(=O)N1CCNCC1)(c1ccccc1)n1ncc2c1nc(N)n1nc(-c3ccco3)nc21` (stereo not shown) [Compound B21, 2-(5-amino-2-(furan-2-yl)-7H-pyrazolo[4,3-e][1,2,4]triazolo[1,5-c]pyrimidin-7-yl)-2-phenyl-1-(piperazin-1-yl)propan-1-one], 96.7 nM; to `Nc1nc2c(cnn2C(C(=O)N2CCc3ccc(F)cc3C2)c2ccccc2)c2nc(-c3ccco3)nn12` (stereo not shown) [Compound B11, 2-(5-amino-2-(furan-2-yl)-7H-pyrazolo[4,3-e][1,2,4]triazolo[1,5-c]pyrimidin-7-yl)-1-(7-fluoro-3,4-dihydroisoquinolin-2(1H)-yl)-2-phenylethan-1-one], 2.2 nM.
To `COCCOc1ccc(N2CCN(C(=O)C(C)(c3ccccc3)n3ncc4c3nc(N)n3nc(-c5ccco5)nc43)[C@@H](C)C2)cc1` (stereo partly drawn) [Compound A72, 2-(5-amino-2-(furan-2-yl)-7H-pyrazolo[4,3-e][1,2,4]triazolo[1,5-c]pyrimidin-7-yl)-1-((S)-4-(4-(2-methoxyethoxy)phenyl)-2-methylpiperazin-1-yl)-2-phenylpropan-1-one] belongs 103 nM.
Molecule `COCCOCCOc1ccc(N2CCN(C(=O)C(C)n3cc4c(nc(N)n5nc(-c6ccco6)nc45)n3)CC2)cc1` (stereo not shown) [Compound C9, 2-(5-amino-2-(furan-2-yl)-8H-pyrazolo[4,3-e][1,2,4]triazolo[1,5-c]pyrimidin-8-yl)-1-(4-(4-(2-(2-methoxyethoxy)ethoxy)phenyl)piperazin-1-yl)propan-1-one] returned an IC50 of 39.8 nM.
For `CN1CCN(CCOc2ccc(N3CCN(C(=O)[C@](C)(c4ccccc4)n4ncc5c4nc(N)n4nc(-c6ccco6)nc54)CC3)cc2)CC1` [Compound A81a, (S)-2-(5-amino-2-(furan-2-yl)-7H-pyrazolo[4,3-e][1,2,4]triazolo[1,5-c]pyrimidin-7-yl)-1-(4-(4-(2-(4-methylpiperazin-1-yl)ethoxy)phenyl)piperazin-1-yl)-2-phenylpropan-1-one] the value was 7.9 nM; for `CN(C)CCOc1ccc(N2CCN(C(=O)C(C)(c3ccccc3)n3ncc4c3nc(N)n3nc(-c5ccco5)nc43)CC2)cc1` (stereo not shown) [Compound A71, 2-(5-amino-2-(furan-2-yl)-7H-pyrazolo[4,3-e][1,2,4]triazolo[1,5-c]pyrimidin-7-yl)-1-(4-(4-(2-(dimethylamino)ethoxy)phenyl)piperazin-1-yl)-2-phenylpropan-1-one], 7.5 nM; for `COCCOc1ccc(N2CCN(C(=O)C(c3ccccc3)n3ncc4c3nc(N)n3nc(-c5ccco5)nc43)CC2)c(F)c1F` (stereo not shown) [Compound A56, 2-(5-amino-2-(furan-2-yl)-7H-pyrazolo[4,3-e][1,2,4]triazolo[1,5-c]pyrimidin-7-yl)-1-(4-(2,3-difluoro-4-(2-methoxyethoxy)phenyl)piperazin-1-yl)-2-phenylethan-1-one], 1.7 nM.
To `COCCOc1ccc(N2CCN(C(=O)C(c3ccccc3)n3cc4c(nc(N)n5nc(-c6ccco6)nc45)n3)CC2)cc1` (stereo not shown) [Compound C14, 2-(5-amino-2-(furan-2-yl)-8H-pyrazolo[4,3-e][1,2,4]triazolo[1,5-c]pyrimidin-8-yl)-1-(4-(4-(2-methoxyethoxy)phenyl)piperazin-1-yl)-2-phenylethan-1-one] belongs 9.5 nM.
To `CCCC(C(=O)N1CCN(c2ccc(OCCOCCOC)cc2)CC1)n1cc2c(nc(N)n3nc(-c4ccco4)nc23)n1` (stereo not shown) [Compound C7, 2-(5-amino-2-(furan-2-yl)-8H-pyrazolo[4,3-e][1,2,4]triazolo[1,5-c]pyrimidin-8-yl)-1-(4-(4-(2-(2-methoxyethoxy)ethoxy)phenyl)piperazin-1-yl)pentan-1-one] belongs 186 nM; to `COCCOc1ccc(N2CCN(C(=O)C(C3CC3)n3ncc4c3nc(N)n3nc(-c5ccco5)nc43)CC2)cc1` (stereo not shown) [Compound A15, 2-(5-amino-2-(furan-2-yl)-7H-pyrazolo[4,3-e][1,2,4]triazolo[1,5-c]pyrimidin-7-yl)-2-cyclopropyl-1-(4-(4-(2-methoxyethoxy)phenyl)piperazin-1-yl)ethan-1-one], 8.4 nM.
`CC(C(=O)N1CCN(c2ccc(OCCN)cc2)CC1)n1cc2c(nc(N)n3nc(-c4ccco4)nc23)n1` (stereo not shown) [Compound C13, 2-(5-amino-2-(furan-2-yl)-8H-pyrazolo[4,3-e][1,2,4]triazolo[1,5-c]pyrimidin-8-yl)-1-(4-(4-(2-aminoethoxy)phenyl)piperazin-1-yl)propan-1-one] gave a concentration for half-maximal inhibition (IC50) of 12.7 nM.
To `CC(C(=O)N1CCN(c2ccc(OCCO)cc2)CC1)(c1ccccc1)n1ncc2c1nc(N)n1nc(-c3ccco3)nc21` (stereo not shown) [Compound A108, 2-(5-amino-2-(furan-2-yl)-7H-pyrazolo[4,3-e][1,2,4]triazolo[1,5-c]pyrimidin-7-yl)-1-(4-(4-(2-hydroxyethoxy)phenyl)piperazin-1-yl)-2-phenylpropan-1-one] belongs 3.5 nM.
For `COCCOc1ccc(N2CCN(C(=O)C(c3ccccc3)n3ncc4c3nc(N)n3nc(-c5ccco5)nc43)CC2)cc1F` (stereo not shown) [Compound A55, 2-(5-amino-2-(furan-2-yl)-7H-pyrazolo[4,3-e][1,2,4]triazolo[1,5-c]pyrimidin-7-yl)-1-(4-(3-fluoro-4-(2-methoxyethoxy)phenyl)piperazin-1-yl)-2-phenylethan-1-one], the 50% inhibitory concentration (IC50) is 2.3 nM.
For `COCCOc1ccc(N2CCN(C(=O)C(C)(c3ccccc3C)n3ncc4c3nc(N)n3nc(-c5ccco5)nc43)CC2)cc1` (stereo not shown) [Compound A103, 2-(5-amino-2-(furan-2-yl)-7H-pyrazolo[4,3-e][1,2,4]triazolo[1,5-c]pyrimidin-7-yl)-1-(4-(4-(2-methoxyethoxy)phenyl)piperazin-1-yl)-2-(o-tolyl)propan-1-one] the value was 1.7 nM; for `Nc1nc2c(cnn2C(C(=O)N2CCc3ccccc3C2)c2ccccc2)c2nc(-c3ccco3)nn12` (stereo not shown) [Compound B3, 2-(5-amino-2-(furan-2-yl)-7H-pyrazolo[4,3-e][1,2,4]triazolo[1,5-c]pyrimidin-7-yl)-1-(3,4-dihydroisoquinolin-2(1H)-yl)-2-phenylethan-1-one], 1.9 nM.
